Experimental data as given in PubChem BioAssay (NCI).
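The compound was tested at five concentrations on cells cultured in 96-well plates, with a 48-hour exposure period. GI50 = concentration required for 50% inhibition of growth. TGI: concentration producing complete growth inhibition.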

System: MDA-MB-468 breast
Experiment: NCI tumour cell line growth inhibition, 48 h

CC/C(=C(/CC)c1ccc(O)cc1)c1ccc(O)cc1
GI50: 2.71 µM
TGI: 15.1 µM

COc1ccc(/C=C/C(=O)c2ccccc2)cc1OC
GI50: 5.25 µM
TGI: 18.6 µM

Nc1nc(Cl)nc2c1ncn2C1OC(CO)C(O)C1O (configuration not stated)
GI50: > 100 µM
TGI: > 100 µM

O=C1Nc2c(ccc(Cl)c2Cl)/C1=C\c1cc(C(F)(F)F)cc(C(F)(F)F)c1
GI50: 1.51 µM
TGI: 5.6 µM

Cc1ccc(S(=O)(=O)NCCCNc2nc(Nc3ccc(N4CCN(C)CC4)cc3)nc3ccsc23)cc1
GI50: 7.43 µM
TGI: 20.6 µM

CNC(=O)c1cc(Oc2ccc3nc(NC(=O)Nc4cc(C(F)(F)F)cc(C(F)(F)F)c4)sc3c2)ccn1
GI50: 0.399 µM
TGI: 1.75 µM

Oc1[nH]c2ccccc2c1/C=c1/ccc2c(c1)N=C(c1cc(F)cc(F)c1)N=2
GI50: 2.62 µM
TGI: 8.64 µM

Cc1cc2nc3c4cc([N+](=O)[O-])ccc4n(CCN(C)C)c3nc2cc1C
GI50: 0.374 µM
TGI: 1.38 µM

Cn1cc(-c2ccc3nnc(C(F)(F)c4ccc5ncccc5c4)n3n2)cn1
GI50: 22.5 µM
TGI: > 100 µM

N/C(=N\C(N)=N\c1nc2ccccc2s1)c1ccnc(Br)c1
GI50: 17.5 µM
TGI: > 100 µM

CCN(CC)CC(O)c1cc(-c2ccc(Cl)cc2)nc2cc(Cl)ccc12 (configuration not stated)
GI50: 1.92 µM
TGI: 3.53 µM

CCOC(=O)Nc1cc(-c2ccc(C)c(NS(C)(=O)=O)c2)nn2c(C)nnc12
GI50: 0.557 µM
TGI: 4.21 µM

COc1ccc2c(c1)C(=O)c1c-2c(OCCN2CCCCC2)nc2ccc(OC)cc12
GI50: 0.392 µM
TGI: 2.49 µM

CCN(CC)CCNC(=O)C(Cl)=C1C(Cl)=C(Cl)C(Cl)=C1Cl
GI50: 2.08 µM
TGI: 7.63 µM

COC1=CC(c2ccc[nH]2)=N/C1=C\c1[nH]c(C)c(C)c1CCC(=O)OCc1ccccc1
GI50: 1.51 µM
TGI: 5.31 µM

Clc1ccc(Nc2ncnc3c2sc2ncccc23)c(Cl)c1
GI50: 0.0548 µM
TGI: 73.8 µM
